The values below come from paper PMC11579541, “In vitro, in vivo, and in silico approaches for evaluating the preclinical DMPK profiles of ammoxetine, a novel chiral serotonin and norepinephrine reuptake inhibitor” (Frontiers in Pharmacology, 2024).

One data set deals with T1, CYP 2B6 (Homo sapiens, UniProt P20813).
T1 construct: 0.5 mg/mL HLM, 1 mmol/L NADPH, and a cocktail of 10 probe substrates for 9 CYP isoforms; tissue BD (Woburn, USA); host or cells: pooled human liver microsomes
T1 sequence (P20813 1-491): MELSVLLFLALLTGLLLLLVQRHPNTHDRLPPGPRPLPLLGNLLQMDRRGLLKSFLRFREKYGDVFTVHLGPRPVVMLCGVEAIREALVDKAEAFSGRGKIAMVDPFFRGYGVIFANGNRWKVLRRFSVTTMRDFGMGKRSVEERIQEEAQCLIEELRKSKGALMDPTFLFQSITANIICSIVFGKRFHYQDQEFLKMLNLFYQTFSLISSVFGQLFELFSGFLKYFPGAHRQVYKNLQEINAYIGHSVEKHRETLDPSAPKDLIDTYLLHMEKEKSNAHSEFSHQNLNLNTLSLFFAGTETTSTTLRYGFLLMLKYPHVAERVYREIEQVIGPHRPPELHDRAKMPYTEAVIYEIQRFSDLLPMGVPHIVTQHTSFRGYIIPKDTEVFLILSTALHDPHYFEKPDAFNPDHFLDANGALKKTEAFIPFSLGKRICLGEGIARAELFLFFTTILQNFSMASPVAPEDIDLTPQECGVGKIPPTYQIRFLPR
The data set can be described thus: CYP inhibition, cocktail-substrate method in HLM. The format is in vitro ADME. As to conditions: probe bupropion. As to the method: (§1) To assess the CYP inhibition profiling of ammoxetine, a high-throughput assay based on the cocktail-substrate method was performed, as described in the literature ([Kim et al., 2005]; [Kozakai et al., 2014]). Microsomal incubations were conducted in triplicate for 30 min at 37°C in a reaction system (200 μL) consisting of […] potassium phosphate buffer (pH 7.4), 0.5 mg/mL HLM, 1 mmol/L NADPH, and a cocktail of 10 probe substrates for 9 CYP isoforms. The final concentration of each CYP-specific substrate was chosen to be close to the Michaelis-Menten constant (K m ) value of the respective substrate ([Kim et al., 2005]; [Lee et al., 2024]). For instance, phenacetin (CYP 1A2) was used at a concentration of 50 μmol/L, coumarin (CYP 2A6) at 5 μmol/L, bupropion (CYP 2B6) at 50 μmol/L, amodiaquine (CYP 2C8) at 5 μmol/L, tolbutamide (CYP 2C9) at 100 μmol/L, S-mephenytoin (CYP 2C19) at 100 μmol/L, dextromethorphan (CYP 2D6) at 5 μmol/L, chlorzoxazone (CYP 2E1) at 50 μmol/L, and testosterone and midazolam (CYP 3A4) at 50 μmol/L. Ammoxetine was evaluated at five concentrations: 0.1, 1, 10, 50, and 100 μmol/L. Additionally, a blank control without ammoxetine was included. The incubation was terminated by adding an equal volume of ice-cold acetonitrile/methanol (1:1, v/v) along with the IS, dexmedetomidine (1 ng/mL). After a 20-fold dilution, the mixture was centrifuged at 13,800×g for 10 min at 4°C. The supernatants were used to measure the levels of metabolites from the respective probe substrates using an LC-MS-MS method. The half-maximal inhibitory concentration (IC50) values were subsequently calculated.

The target in the next data set is T2, CYP 2C8 (Homo sapiens, UniProt P10632).
T2 construct: 0.5 mg/mL HLM, 1 mmol/L NADPH, and a cocktail of 10 probe substrates for 9 CYP isoforms; tissue BD (Woburn, USA); host or cells: pooled human liver microsomes
T2 sequence (P10632 1-490): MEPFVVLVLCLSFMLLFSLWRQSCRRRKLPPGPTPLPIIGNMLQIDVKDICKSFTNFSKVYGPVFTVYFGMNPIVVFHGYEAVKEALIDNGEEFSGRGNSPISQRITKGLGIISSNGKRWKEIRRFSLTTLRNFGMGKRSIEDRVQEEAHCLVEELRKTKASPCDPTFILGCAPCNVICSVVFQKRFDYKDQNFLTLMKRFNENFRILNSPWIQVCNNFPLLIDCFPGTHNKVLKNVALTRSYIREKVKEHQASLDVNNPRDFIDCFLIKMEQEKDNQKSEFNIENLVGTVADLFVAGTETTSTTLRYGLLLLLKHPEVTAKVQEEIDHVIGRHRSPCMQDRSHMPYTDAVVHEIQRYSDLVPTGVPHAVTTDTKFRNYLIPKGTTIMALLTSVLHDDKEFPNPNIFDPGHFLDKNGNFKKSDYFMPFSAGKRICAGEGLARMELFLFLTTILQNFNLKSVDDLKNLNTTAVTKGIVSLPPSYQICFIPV
Briefly: CYP inhibition, cocktail-substrate method in HLM. Type of data set: in vitro ADME. Particulars: probe amodiaquine. As to the method:
as §1

Another data set concerns HLM. Briefly: Hepatic microsome stability assay, HLM. Particulars: predicted hepatic clearance. Type of data set: in vitro ADME, human. As to the method: (§2) A hepatic microsome stability assay was conducted to investigate the metabolic disposition of ammoxetine. In this assay, 100 μL of ammoxetine (2.5 μmol/L) was incubated at 37°C with 100 μL of liver microsomes (RLM, DLM, MLM, or HLM) formulated in a 5 mmol/L dipotassium hydrogen phosphate (K2HPO4) buffer at pH 7.4. The concentration of microsomes was 0.5 g/L. To initiate the incubations, 50 μL of NADPH solution preincubated at 37°C was added. […] Parallel triplicate samples were prepared for each time point, including 0, 2, 5, 10, 15, 30, 60, 90, and 120 min. To stop the reactions at each time point, 250 μL of ice-cold precipitating agent (acetonitrile/methanol, 1:1, v/v) containing 500 ng/mL of L-phencynonate (IS) was added to the incubation mixture. The samples were vortexed for 2 min at 4°C and then centrifuged at 13,800×g for 10 min. The supernatants were analyzed using an LC-MS-MS approach. […]
(§3) In Formula 3, t1/2 (min) represents the half-life of ammoxetine in liver microsomes. It is calculated by dividing −0.693 by the resulting slope (k e) obtained from a natural logarithm plot of the remaining concentration of ammoxetine against incubation time. […]

Data set [1] can be described thus: Hepatic microsome stability assay, HLM. Type of data set: in vitro ADME, human. As to conditions: human, liver microsomes, pH 7.4; 1 μmol/L, 0.2 g/L microsomes, NADPH. As to the method:
as §2, §3
(In general: Liver microsomes are vesicles of endoplasmic reticulum, rich in cytochrome P450 enzymes.)

Broadly, the IC50 is the concentration at which inhibition is half-maximal. A higher IC50 goes with a need for much substance. What is called half-life is the time needed for the level to fall by half in the phase considered. With `CNCC[C@H](Oc1cccc2c1OCO2)c1cccs1` [ammoxetine], the IC50 against CYP 2B6 and at CYP 2C8 was over 100 µM in each case. Also, in the data set with HLM, the CL h was 9.05 ± 0.13 mL/min/kg. The compound also had a half-life at 1 μmol/L in data set [1] of 4.16 ± 0.101 h.
